In patent US20130344501A1, “METHODS FOR PRODUCING THREE-DIMENSIONAL PHYSIOLOGICALLY RELEVANT IMMUNE TISSUE SYSTEMS UNDER LOW FLUID SHEAR CONDITIONS” (priority 2010, published 2013):

System: U937 cells
Test: Cell viability of U937 monocytes cultured alone (with or without microcarrier beads) after exposure to 3-oxo-C12 HSL, flow cytometry
Format: cell-based, human
Conditions: for Percentage viability, U937: U937 cells exposed alone, mean ± SD, N=3; for Percentage viability, U937 / Percentage viability, U937 + beads: 20 hour exposure; for Percentage viability, U937 + beads: U937 in the presence of microcarrier beads
Experimental: Assessment of live-, apoptotic-, and necrotic cell populations was performed with the annexin V-propidium iodide (PI) kit for flow cytometry analysis (ImmunoSource) according to the manufacturer's instructions.
Stained cell suspensions were analyzed with an EPICS XL flow cytometer (Beckman-Coulter) or a Cytomics FC 500 system (Beckman-Coulter), equipped with an argon laser and filters for adequate excitation of the chosen fluorophores. Forward scatter, side scatter, FITC-, PI and PE-Cy5 emissions were measured and a total of 10,000 cells were recorded for each sample. The respective cell populations were delimited to eliminate background signals originating from cell debris. To assess background fluorescent signals from the tested cell populations, non-stained samples were included.
After 72 hours of co-cultivation, aggregates containing 2×10^6 cells were seeded into 6-well plates containing fresh medium (5 ml total volume). Subsequently, aggregates were spiked with 5, 10 or 100 μM 3-oxo-C12 HSL (Sigma-Aldrich) (starting from a 20 mM stock solution in DMSO, stored at −20° C.). Equal volumes of DMSO, containing the respective amounts of 3-oxo-C12 HSL, were added to each well (25 μl) and a solvent control (25 μl DMSO) was included in each experiment. Six-well plates were placed at 37° C. in a 5% CO2 environment and incubated for 20 hours. For exposure assays of monocytes to 3-oxo-C12 HSL, 2×10^6 U937 cells/well were transferred in 6-well plates. To assess the influence of 3-oxo-C12 HSL on monocytes cultured on microcarrier beads, collagen I-coated beads were added to the cells at the same concentration as for seeding three-dimensional cultures (1 bead per 2500 cells). Subsequently, monocyte cultures (with or without microcarrier beads) were spiked with 3-oxo-C12 HSL (see above). A solvent control was included. […] Cell viability was assayed with trypan blue (0.4%) (Sigma) and/or with the annexin V-PI kit (ImmunoSource) (see above). […] FIG. 9B are examples of the three-dimensional A549-U937 co-culture model exposed to 100 μM 3-oxo-C12 HSL and to the solvent control DMSO. The presented cell population is gated for CD45 positive cells and thus only includes monocytes/macrophages. For FIGS. 9A-B, “I” represents the percentage of dead cells, while “H” is the viable cell population. Consequently, cell viability was further assessed based on the shift in forward scatter signal (see Table 1).

CCCCCCCCCC(=O)CC(=O)N[C@H]1CCOC1=O [3-oxo-C12 HSL, N-(3-oxododecanoyl)-Lhomoserine lactone]
loss of viability of pure cultures of U937 cells (100 μM, after 2 hours of exposure): started to show significant loss of viability | viability of pure cultures of U937 cells (100 μM, after 5 hours of exposure): 50% | Percentage viability, U937 (5 μM): 82.8 ± 0.2% | Percentage viability, U937 (10 μM): 75.6 ± 0.6% | Percentage viability, U937 + beads (5 μM): 89.1 ± 1.4% | Percentage viability, U937 + beads (10 μM): 90.9 ± 0.4% | Percentage viability, U937 + beads (100 μM): 5.3 ± 0.4% | monocyte cell viability (lower concentrations, 5 μM and 10 μM): did not induce significant differences
